Measured values from patent US20260176320A1, “MODULATORS OF G-PROTEIN COUPLED RECEPTORS” (priority 2018, published 2026).
Where two headings read alike, the source gives them in different places.

How the values were obtained:
GLP-1R = GLP-1R (Homo sapiens, UniProt P43220); experiment: HitHunter cAMP assay (GLP-1R); type: cell-based; settings: cAMP; for Emax: read-out: (Emax) GLP-1R
Procedure, shortened: (§1)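 Suspension cells (10,000/well) in HBSS with 10 mM HEPES, 625 μM IBMX, 0.2% BSA exposed to 22-point 2-fold agonist series in duplicate for 30 min at room temperature. cAMP measured by antibody immunocompetition with overnight development, luminescence read-out.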

GIP-R = target: T1, GIP-R (Homo sapiens, UniProt P48546); experiment: HitHunter cAMP assay (GIP-R); type: cell-based; settings: cAMP; for Emax: read-out: (Emax) GIP-R
T1 sequence (P48546 22-466): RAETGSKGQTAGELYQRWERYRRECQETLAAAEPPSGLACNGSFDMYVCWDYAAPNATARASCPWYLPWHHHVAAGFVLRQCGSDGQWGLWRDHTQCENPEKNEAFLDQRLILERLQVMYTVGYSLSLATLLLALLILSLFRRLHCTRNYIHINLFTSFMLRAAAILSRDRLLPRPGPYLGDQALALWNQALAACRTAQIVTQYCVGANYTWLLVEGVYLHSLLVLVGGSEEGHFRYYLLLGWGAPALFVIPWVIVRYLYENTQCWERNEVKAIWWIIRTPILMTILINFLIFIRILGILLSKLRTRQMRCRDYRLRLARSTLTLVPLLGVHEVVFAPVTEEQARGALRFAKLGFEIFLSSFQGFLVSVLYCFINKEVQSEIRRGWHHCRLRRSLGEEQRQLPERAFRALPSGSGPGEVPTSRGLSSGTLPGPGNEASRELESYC
Procedure, shortened: as §1

[1] = Table 3, read-out: EC50 GLP-1R/nM
[2] = Table 3A, read-out: EC50 GLP-1R/nM
[3] = Table 3, read-out: EC50 GIP-R/nM
[4] = Table 3A, read-out: EC50 GIP-R/nM

GLP-1R, sequence (P43220 24-463): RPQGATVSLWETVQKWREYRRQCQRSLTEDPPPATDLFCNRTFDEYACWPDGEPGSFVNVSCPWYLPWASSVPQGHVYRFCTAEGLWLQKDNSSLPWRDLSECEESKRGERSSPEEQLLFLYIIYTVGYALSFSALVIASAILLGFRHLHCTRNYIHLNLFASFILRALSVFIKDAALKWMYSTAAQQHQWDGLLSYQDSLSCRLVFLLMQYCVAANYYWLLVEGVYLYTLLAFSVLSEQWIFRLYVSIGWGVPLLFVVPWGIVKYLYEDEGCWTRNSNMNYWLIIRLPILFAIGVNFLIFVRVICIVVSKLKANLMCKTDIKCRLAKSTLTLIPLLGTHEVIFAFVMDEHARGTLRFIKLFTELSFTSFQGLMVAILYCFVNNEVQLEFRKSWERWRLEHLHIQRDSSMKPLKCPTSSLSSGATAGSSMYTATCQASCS

Structure (SMILES) | Emax (GLP-1R; Table 3) [%] | Emax (GLP-1R; Table 3A) [%] | Emax (GIP-R; Table 3) [%] | Emax (GIP-R; Table 3A) [%] | EC50 (GLP-1R; [1]) [nM] | EC50 (GLP-1R; [2]) [nM] | EC50 (GIP-R; [3]) [nM] | EC50 (GIP-R; [4]) [nM] | EC50 (GLP-1R; EC50 GLP-1R/nM, Table 3) [nM] | EC50 (GLP-1R; EC50 GLP-1R/nM, Table 3A) [nM] | EC50 (GIP-R; EC50 GIP-R/nM, Table 3) [nM] | EC50 (GIP-R; EC50 GIP-R/nM, Table 3A) [nM]
CCCCCCCCCCCCCCCC(=O)N[C@@H](CCC(=O)NCCCC[C@H](NC(=O)[C@H](CO)NC(=O)[C@@H]1CCCN1C(=O)[C@@H]1CCCN1C(=O)[C@@H]1CCCN1C(=O)[C@H](C)NC(=O)CNC(=O)[C@H](CO)NC(=O)[C@H](CO)NC(=O)[C@@H]1CCCN1C(=O)CNC(=O)CNC(=O)[C@H](C)NC(=O)[C@H](CC(C)C)NC(=O)[C@H](CC(C)C)NC(=O)[C@H](Cc1c[nH]c2ccccc12)NC(=O)[C@H](CC(N)=O)NC(=O)[C@@H](NC(=O)[C@H](Cc1ccccc1)NC(=O)[C@H](CCC(=O)O)NC(=O)C(C)(C)NC(=O)[C@H](C)NC(=O)[C@H](C)NC(=O)[C@H](CCC(N)=O)NC(=O)[C@H](CCCCN)NC(=O)[C@H](CC(=O)O)NC(=O)[C@H](CC(C)C)NC(=O)[C@H](Cc1ccc(O)cc1)NC(=O)[C@@H](NC(=O)[C@H](CO)NC(=O)[C@H](Cc1ccc(O)cc1)NC(=O)[C@H](CC(=O)O)NC(=O)[C@H](CO)NC(=O)[C@@H](NC(=O)[C@H](Cc1ccccc1)NC(=O)[C@@H](NC(=O)CNC(=O)[C@H](CCC(=O)O)NC(=O)CSCC(=O)NCCN1C(=O)CC[C@@H]1C)[C@@H](C)O)[C@@H](C)O)[C@@H](C)CC)C(C)C)C(N)=O)C(=O)O (single isomer, unassigned) [Compound 75] | 99 | 99 | 39 | 39 |  |  |  |  |  |  |  | 
CCCCCCCCCCCCCCCC(=O)N[C@@H](CCC(=O)NCCCC[C@H](NC(=O)[C@H](CO)NC(=O)[C@@H]1CCCN1C(=O)[C@@H]1CCCN1C(=O)[C@@H]1CCCN1C(=O)[C@H](C)NC(=O)CNC(=O)[C@H](CO)NC(=O)[C@H](CO)NC(=O)[C@@H]1CCCN1C(=O)CNC(=O)CNC(=O)[C@H](C)NC(=O)[C@H](CC(C)C)NC(=O)[C@H](CC(C)C)NC(=O)[C@H](Cc1c[nH]c2ccccc12)NC(=O)[C@H](CC(N)=O)NC(=O)[C@@H](NC(=O)[C@H](Cc1ccccc1)NC(=O)[C@H](CCC(=O)O)NC(=O)C(C)(C)NC(=O)[C@H](C)NC(=O)[C@H](C)NC(=O)[C@H](CCC(N)=O)NC(=O)[C@H](CCCCN)NC(=O)[C@H](CC(=O)O)NC(=O)[C@H](CC(C)C)NC(=O)[C@H](Cc1ccc(O)cc1)NC(=O)[C@@H](NC(=O)[C@H](CO)NC(=O)[C@H](Cc1ccc(O)cc1)NC(=O)[C@H](CC(=O)O)NC(=O)[C@H](CO)NC(=O)[C@@H](NC(=O)[C@H](Cc1ccccc1)NC(=O)[C@@H](NC(=O)CNC(=O)[C@H](CCC(=O)O)NC(=O)CSCC(=O)NCCN1C[C@@H](O)CC1=O)[C@@H](C)O)[C@@H](C)O)[C@@H](C)CC)C(C)C)C(N)=O)C(=O)O [Compound 45] | 100 | 100 | 42 | 42 | 0.1 to 1 | 0.1 to 1 | 1 to 10 | 1 to 10 |  |  |  | 
CCCCCCCCCCCCCCCC(=O)N[C@@H](CCC(=O)NCCCC[C@H](NC(=O)[C@H](CO)NC(=O)[C@@H]1CCCN1C(=O)[C@@H]1CCCN1C(=O)[C@@H]1CCCN1C(=O)[C@H](C)NC(=O)CNC(=O)[C@H](CO)NC(=O)[C@H](CO)NC(=O)[C@@H]1CCCN1C(=O)CNC(=O)CNC(=O)[C@H](C)NC(=O)[C@H](CC(C)C)NC(=O)[C@H](CC(C)C)NC(=O)[C@H](Cc1c[nH]c2ccccc12)NC(=O)[C@H](CC(N)=O)NC(=O)[C@@H](NC(=O)[C@H](Cc1ccccc1)NC(=O)[C@H](CCC(=O)O)NC(=O)C(C)(C)NC(=O)[C@H](C)NC(=O)[C@H](C)NC(=O)[C@H](CCC(N)=O)NC(=O)[C@H](CCCCN)NC(=O)[C@H](CC(=O)O)NC(=O)[C@H](CC(C)C)NC(=O)[C@H](Cc1ccc(O)cc1)NC(=O)[C@@H](NC(=O)[C@H](CO)NC(=O)[C@H](Cc1ccc(O)cc1)NC(=O)[C@H](CC(=O)O)NC(=O)[C@H](CO)NC(=O)[C@@H](NC(=O)[C@H](Cc1ccccc1)NC(=O)[C@@H](NC(=O)CNC(=O)[C@H](CCC(=O)O)NC(=O)CSCC(=O)NCCN1CC(=O)N(C)C1=O)[C@@H](C)O)[C@@H](C)O)[C@@H](C)CC)C(C)C)C(N)=O)C(=O)O [Compound 46] | 100 | 100 | 46 | 46 | 1 to 10 | 1 to 10 | 1 to 10 | 1 to 10 |  |  |  | 
CCCCCCCCCCCCCCCC(=O)N[C@@H](CCC(=O)NCCCC[C@H](NC(=O)[C@H](CO)NC(=O)[C@@H]1CCCN1C(=O)[C@@H]1CCCN1C(=O)[C@@H]1CCCN1C(=O)[C@H](C)NC(=O)CNC(=O)[C@H](CO)NC(=O)[C@H](CO)NC(=O)[C@@H]1CCCN1C(=O)CNC(=O)CNC(=O)[C@H](C)NC(=O)[C@H](CC(C)C)NC(=O)[C@H](CC(C)C)NC(=O)[C@H](Cc1c[nH]c2ccccc12)NC(=O)[C@H](CC(N)=O)NC(=O)[C@@H](NC(=O)[C@H](Cc1ccccc1)NC(=O)[C@H](CCC(=O)O)NC(=O)C(C)(C)NC(=O)[C@H](C)NC(=O)[C@H](C)NC(=O)[C@H](CCC(N)=O)NC(=O)[C@H](CCCCN)NC(=O)[C@H](CC(=O)O)NC(=O)[C@H](CC(C)C)NC(=O)[C@H](Cc1ccc(O)cc1)NC(=O)[C@@H](NC(=O)[C@H](CO)NC(=O)[C@H](Cc1ccc(O)cc1)NC(=O)[C@H](CC(=O)O)NC(=O)[C@H](CO)NC(=O)[C@@H](NC(=O)[C@H](Cc1ccccc1)NC(=O)[C@@H](NC(=O)CNC(=O)[C@H](CCC(=O)O)NC(=O)CSCC(=O)NCCN1CC[C@@H](O)C1=O)[C@@H](C)O)[C@@H](C)O)[C@@H](C)CC)C(C)C)C(N)=O)C(=O)O [Compound 47] | 100 | 100 | 24 | 24 | < 0.1 | < 0.1 | 1 to 10 | 10 to 100 |  |  |  | 
CCCCCCCCCCCCCCCC(=O)N[C@@H](CCC(=O)NCCCC[C@H](NC(=O)[C@H](CO)NC(=O)[C@@H]1CCCN1C(=O)[C@@H]1CCCN1C(=O)[C@@H]1CCCN1C(=O)[C@H](C)NC(=O)CNC(=O)[C@H](CO)NC(=O)[C@H](CO)NC(=O)[C@@H]1CCCN1C(=O)CNC(=O)CNC(=O)[C@H](C)NC(=O)[C@H](CC(C)C)NC(=O)[C@H](CC(C)C)NC(=O)[C@H](Cc1c[nH]c2ccccc12)NC(=O)[C@H](CC(N)=O)NC(=O)[C@@H](NC(=O)[C@H](Cc1ccccc1)NC(=O)[C@H](CCC(=O)O)NC(=O)C(C)(C)NC(=O)[C@H](C)NC(=O)[C@H](C)NC(=O)[C@H](CCC(N)=O)NC(=O)[C@H](CCCCN)NC(=O)[C@H](CC(=O)O)NC(=O)[C@H](CC(C)C)NC(=O)[C@H](Cc1ccc(O)cc1)NC(=O)[C@@H](NC(=O)[C@H](CO)NC(=O)[C@H](Cc1ccc(O)cc1)NC(=O)[C@H](CC(=O)O)NC(=O)[C@H](CO)NC(=O)[C@@H](NC(=O)[C@H](Cc1ccccc1)NC(=O)[C@@H](NC(=O)CNC(=O)[C@H](CCC(=O)O)NC(=O)CSCC(=O)NCCN1C(=O)C[C@@H](OC)C1=O)[C@@H](C)O)[C@@H](C)O)[C@@H](C)CC)C(C)C)C(N)=O)C(=O)O [Compound 48] | 104 | 104 | 65 | 65 |  |  |  |  | 0.1 to 1 | 0.1 to 1 | 0.1 to 1 | 0.1 to 1
CCCCCCCCCCCCCCCC(=O)N[C@@H](CCC(=O)NCCCC[C@H](NC(=O)[C@H](CO)NC(=O)[C@@H]1CCCN1C(=O)[C@@H]1CCCN1C(=O)[C@@H]1CCCN1C(=O)[C@H](C)NC(=O)CNC(=O)[C@H](CO)NC(=O)[C@H](CO)NC(=O)[C@@H]1CCCN1C(=O)CNC(=O)CNC(=O)[C@H](C)NC(=O)[C@H](CC(C)C)NC(=O)[C@H](CC(C)C)NC(=O)[C@H](Cc1c[nH]c2ccccc12)NC(=O)[C@H](CC(N)=O)NC(=O)[C@@H](NC(=O)[C@H](Cc1ccccc1)NC(=O)[C@H](CCC(=O)O)NC(=O)C(C)(C)NC(=O)[C@H](C)NC(=O)[C@H](C)NC(=O)[C@H](CCC(N)=O)NC(=O)[C@H](CCCCN)NC(=O)[C@H](CC(=O)O)NC(=O)[C@H](CC(C)C)NC(=O)[C@H](Cc1ccc(O)cc1)NC(=O)[C@@H](NC(=O)[C@H](CO)NC(=O)[C@H](Cc1ccc(O)cc1)NC(=O)[C@H](CC(=O)O)NC(=O)[C@H](CO)NC(=O)[C@@H](NC(=O)[C@H](Cc1ccccc1)NC(=O)[C@@H](NC(=O)CNC(=O)[C@H](CCC(=O)O)NC(=O)CSCC(=O)NCCN1C(=O)C[C@H](OC)C1=O)[C@@H](C)O)[C@@H](C)O)[C@@H](C)CC)C(C)C)C(N)=O)C(=O)O [Compound 49] | 101 | 101 | 48 | 48 |  |  |  |  | 0.1 to 1 | 0.1 to 1 | 0.1 to 1 | 0.1 to 1
